# According to patent US8691855B2, “Compounds, isomer thereof, or pharmaceutically acceptable salts thereof as vanilloid receptor antagonist and pharmaceutical compositions containing the same” (Amorepacific Corporation, priority 2008, dated 2014):
# Molecular target: T1, vanilloid receptor (Rattus norvegicus, UniProt O35433)
# T1 construct: DRG nerve cells from the primary culture of 2 days were equilibrated; endogenous in cells; host or cells: primary culture of dorsal root ganglion neurons from neonatal SD rats
# Assay: 45Ca influx test (antagonist calcium uptake test) in rat DRG neurons stimulated with capsaicin
# Format: cell-based
# Details: DRG neuron; @0.3 μM; neonatal SD rat DRG neurons; capsaicin 0.5 μM; read-out: Antagonist Calcium Uptake Test, percent inhibition of capsaicin response
# Summary of the method: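 Neonatal SD rat DRG neurons, cultured 2 days with NGF 200 ng/ml, exposed to test compound plus 0.5 μM capsaicin and 45Ca (10 μCi/ml) in HEPES-buffered Ca/Mg-free HBSS, pH 7.4, 10 min at room temperature. Influx counted by scintillation; activity as percent inhibition of the 0.5 μM capsaicin maximal response.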
# T1 sequence (O35433 whole entry): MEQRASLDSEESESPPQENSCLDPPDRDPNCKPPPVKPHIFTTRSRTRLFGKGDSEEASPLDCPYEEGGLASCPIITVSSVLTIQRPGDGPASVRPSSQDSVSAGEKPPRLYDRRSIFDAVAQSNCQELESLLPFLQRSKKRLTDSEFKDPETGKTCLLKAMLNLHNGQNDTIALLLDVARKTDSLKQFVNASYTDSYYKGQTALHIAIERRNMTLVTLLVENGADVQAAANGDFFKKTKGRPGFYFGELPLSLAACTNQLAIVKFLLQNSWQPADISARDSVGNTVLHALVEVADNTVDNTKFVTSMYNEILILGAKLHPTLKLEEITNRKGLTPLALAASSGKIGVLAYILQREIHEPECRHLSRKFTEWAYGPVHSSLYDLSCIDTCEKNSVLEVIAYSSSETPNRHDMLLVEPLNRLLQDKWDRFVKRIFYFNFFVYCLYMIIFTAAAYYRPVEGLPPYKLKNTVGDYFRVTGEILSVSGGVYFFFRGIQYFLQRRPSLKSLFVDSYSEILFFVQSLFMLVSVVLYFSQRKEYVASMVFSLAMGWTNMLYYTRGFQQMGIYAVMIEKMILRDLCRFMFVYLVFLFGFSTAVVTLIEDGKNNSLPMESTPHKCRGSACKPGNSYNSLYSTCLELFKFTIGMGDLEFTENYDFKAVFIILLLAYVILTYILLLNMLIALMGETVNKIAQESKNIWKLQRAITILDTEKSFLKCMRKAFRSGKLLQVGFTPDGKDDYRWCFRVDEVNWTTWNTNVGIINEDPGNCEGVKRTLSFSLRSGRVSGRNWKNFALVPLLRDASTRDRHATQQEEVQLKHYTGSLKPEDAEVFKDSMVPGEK
row,inhibition at 0.3 µM [%],Compound
1,96,"C=Cc1cc(CNC(=O)c2ccc(-c3cccc(C(F)(F)F)c3)o2)cc(F)c1NS(C)(=O)=O [Example 105, 5-(3-Trifluoromethyl-phenyl)-furan-2-carboxylic acid 3-fluoro-4-methanesulfonylamino-5-vinyl-benzylamide]"

# Same assay, conditions: DRG neuron; @1 μM; neonatal SD rat DRG neurons; capsaicin 0.5 μM; read-out: Antagonist Calcium Uptake Test, percent inhibition of capsaicin response
row,inhibition at 1 µM [%],Compound
1,66,"C[C@@H](NC(=O)c1ccc(-c2cc(C3CC3)cc(C(F)(F)F)c2)o1)c1cc(F)c(NS(C)(=O)=O)c(F)c1 [Example 95, 5-(3-Cyclopropyl-5-trifluoromethyl-phenyl)-furan-2-carboxylic acid [1-(3,5-difluoro-4-methanesulfonylamino-phenyl)-ethyl]-amide]"
2,100,"C#Cc1cc(CNC(=O)c2ccc(-c3cccc(C(F)(F)F)c3)o2)cc(F)c1NS(C)(=O)=O [Example 104, 5-(3-Trifluoromethyl-phenyl)-furan-2-carboxylic acid 3-ethynyl-5-fluoro-4-methanesulfonylamino-benzylamide]"

# Same assay, conditions: DRG neuron; @3 μM; neonatal SD rat DRG neurons; capsaicin 0.5 μM; read-out: Antagonist Calcium Uptake Test, percent inhibition of capsaicin response
row,inhibition at 3 µM [%],Compound
1,84,"Cc1cc(CNC(=O)c2ccc(-c3cccc(C(F)(F)F)c3)o2)cc(F)c1NS(C)(=O)=O [Example 103, 5-(3-Trifluoromethyl-phenyl)-furan-2-carboxylic acid 3-fluoro-4-methanesulfonylamino-5-methyl-benzylamide]"
2,93,"C=Cc1cc(-c2ccc(C(=O)N[C@H](C)c3cc(F)c(NS(C)(=O)=O)c(F)c3)o2)cc(C(F)(F)F)c1 [Example 114, 5-(3-Trifluoromethyl-5-vinyl-phenyl)-furan-2-carboxylic acid [1-(3,5-difluoro-4-methanesulfonylamino-phenyl)-ethyl]-amide]"

# Same assay, conditions: neonatal SD rat DRG neurons; capsaicin 0.5 μM; 45Ca
row,Compound,IC50 [nM]
1,"C[C@@H](NC(=O)c1coc(-c2ccc3ccccc3c2)n1)c1cc(F)c(NS(C)(=O)=O)c(F)c1 [Example 89, 2-Naphthalen-2-yl-oxazole-4-carboxylic acid [1-(3,5-difluoro-4-methanesulfonylamino-phenyl)-ethyl]-amide]",2700
2,"C[C@@H](NC(=O)c1coc(-c2ccc(F)c(C(F)(F)F)c2)n1)c1cc(F)c(NS(C)(=O)=O)c(F)c1 [Example 92, 2-(4-Fluoro-3-trifluoromethyl-phenyl)-oxazole-4-carboxylic acid [1-(3,5-difluoro-4-methanesulfonylamino-phenyl)-ethyl]-amide]",1700
3,"COc1cc(-c2nc(C(=O)N[C@H](C)c3cc(F)c(NS(C)(=O)=O)c(F)c3)co2)cc(C(F)(F)F)c1 [Example 97, 2-(3-Methoxy-5-trifluoromethyl-phenyl)-oxazole-4-carboxylic acid [1-(3,5-difluoro-4-methanesulfonylamino-phenyl)-ethyl]-amide]",1400
4,"CSc1cccc(-c2nc(C(=O)N[C@H](C)c3cc(F)c(NS(C)(=O)=O)c(F)c3)co2)c1 [Example 98, 2-(3-Methylsulfanyl-phenyl)-oxazole-4-carboxylic acid [1-(3,5-difluoro-4-methanesulfonylamino-phenyl)-ethyl]-amide]",1700
5,"Cc1cc(C)cc(-c2nc(C(=O)N[C@H](C)c3cc(F)c(NS(C)(=O)=O)c(F)c3)co2)c1 [Example 99, 2-(3,5-Dimethyl-phenyl)-oxazole-4-carboxylic acid [1-(3,5-difluoro-4-methanesulfonylamino-phenyl)-ethyl]-amide]",2000
6,"CS(=O)(=O)Nc1c(F)cc(CNC(=O)c2ccc(-c3cccc(C(F)(F)F)c3)o2)cc1C(F)(F)F [Example 113, 5-(3-Trifluoromethyl-phenyl)-furan-2-carboxylic acid 4-methanesulfonylamino-3-fluoro-5-trifluomethyl-benzylamide]",1400
7,"CS(=O)(=O)Nc1ccc(CNC(=O)c2cnc(-c3ccc(C(F)(F)F)cc3)s2)cc1F [Example 122, 2-(4-Trifluoromethyl-phenyl)-thiazole-5-carboxylic acid 3-fluoro-4-methanesulfonylamino-benzylamide]",8800

# Continued, values first:
row,IC50 [nM],Compound
1,150,"C[C@@H](NC(=O)c1coc(Oc2cccc(C(C)(C)C)c2)n1)c1cc(F)c(NS(C)(=O)=O)c(F)c1 [Example 1, 2-(3-tert-Butyl-phenoxy)-oxazole-4-carboxylic acid [1-(3,5-difluoro-4-methanesulfonylamino-phenyl)-ethyl]-amide]"
2,410,"C[C@@H](NC(=O)c1coc(Oc2cccc(C(F)(F)F)c2)n1)c1cc(F)c(NS(C)(=O)=O)c(F)c1 [Example 2, 2-(3-Trifluoromethyl-phenoxy)-oxazole-4-carboxylic acid [1-(3,5-difluoro-4-methanesulfonylamino-phenyl)-ethyl]-amide]"
3,80,"CC(C)c1cccc(Oc2nc(C(=O)N[C@H](C)c3cc(F)c(NS(C)(=O)=O)c(F)c3)co2)c1 [Example 4, 2-(3-Isopropyl-phenoxy)-oxazole-4-carboxylic acid [1-(3,5-difluoro-4-methanesulfonylamino-phenyl)-ethyl]-amide]"
4,910,"Cc1cccc(-c2nc(C(=O)N[C@H](C)c3cc(F)c(NS(C)(=O)=O)c(F)c3)co2)c1C [Example 90, 2-(2,3-Dimethyl-phenyl)-oxazole-4-carboxylic acid [1-(3,5-difluoro-4-methanesulfonylamino-phenyl)-ethyl]-amide]"
5,520,"C[C@@H](NC(=O)c1ccc(-c2cc(C3CC3)cc(C3CC3)c2)o1)c1cc(F)c(NS(C)(=O)=O)c(F)c1 [Example 108, 5-(3,5-Dicyclopropyl-phenyl)-furan-2-carboxylic acid [1-(3,5-difluoro-4-methanesulfonylamino-phenyl)-ethyl]-amide]"
6,270,"C[C@H](NC(=O)c1ccc(-c2cccc(C(F)(F)F)c2)o1)c1cc(F)c(NS(C)(=O)=O)c(F)c1 [Example 109, (S)-5-(3-Trifluoromethyl-phenyl)-furan-2-carboxylic acid [1-(3,5-difluoro-4-methanesulfonylamino-phenyl)-ethyl]-amide]"
7,620,"CS(=O)(=O)Nc1c(F)cc(CNC(=O)c2ccc(-c3cccc(C(F)(F)F)c3)o2)cc1F [Example 110, 5-(3-Trifluoromethyl-phenyl)-furan-2-carboxylic acid 3,5-difluoro-4-methanesulfonylamino-benzylamide]"
8,240,"C[C@@H](NC(=O)c1ccc(-c2cccc(C(F)(F)F)c2)o1)c1ccc(NS(C)(=O)=O)c(F)c1 [Example 111, 5-(3-Trifluoromethyl-phenyl)-furan-2-carboxylic acid [1-(3-fluoro-4-methanesulfonylamino-phenyl)-ethyl]-amide]"
9,220,"Cc1cc(CNC(=O)c2ccc(-c3cccc(C(F)(F)F)c3)o2)ccc1NS(C)(=O)=O [Example 112, 5-(3-Trifluoromethyl-phenyl)-furan-2-carboxylic acid 4-methanesulfonylamino-3-methyl-benzylamide]"
10,770,"C[C@@H](NC(=O)c1coc(-c2cc(Br)cc(C3CC3)c2)n1)c1cc(F)c(NS(C)(=O)=O)c(F)c1 [Example 115, 2-(3-Bromo-5-cyclopropyl-phenyl)-oxazole-4-carboxylic acid [1-(3,5-difluoro-4-methanesulfonylamino-phenyl)-ethyl]-amide]"
11,160,"CCc1cc(-c2ccc(C(=O)N[C@H](C)c3cc(F)c(NS(C)(=O)=O)c(F)c3)o2)cc(C(F)(F)F)c1 [Example 116, 5-(3-Ethyl-5-trifluoromethyl-phenyl)-furan-2-carboxylic acid [1-(3,5-difluoro-4-methanesulfonylamino-phenyl)-ethyl]-amide]"
12,330,"CS(=O)(=O)Nc1c(F)cc(CNC(=O)c2ccc(-c3cccc(C(F)(F)F)c3)o2)cc1C#N [Example 121, 5-(3-Trifluoromethyl-phenyl)-furan-2-carboxylic acid 3-cyano-5-fluoro-4-methanesulfonylamino-benzylamide]"
13,42,"C[C@@H](NC(=O)c1ccc(-c2ccc(F)c(C(F)(F)F)c2)o1)c1cc(F)c(NS(C)(=O)=O)c(F)c1 [Example 124, 5-(4-Fluoro-3-trifluoromethyl-phenyl)-furan-2-carboxylic acid [1-(3,5-difluoro-4-methanesulfonylamino-phenyl)-ethyl]-amide]"
14,530,"CS(=O)(=O)Nc1ccc(CNC(=O)c2ccc(-c3ccc(F)c(C(F)(F)F)c3)o2)cc1F [Example 125, 5-(4-Fluoro-3-trifluoromethyl-phenyl)-furan-2-carboxylic acid 3-fluoro-4-methanesulfonylamino-benzylamide]"
15,490,"C[C@@H](NC(=O)c1cnc(-c2cc(C(F)(F)F)cc(C(F)(F)F)c2)s1)c1cc(F)c(NS(C)(=O)=O)c(F)c1 [Example 126, 2-(3,5-Bis-trifluoromethyl-phenyl)-thiazole-5-carboxylic acid [1-(3,5-difluoro-4-methanesulfonylamino-phenyl)-ethyl]-amide]"

# Test system: Male ICR mice
# Assay: Analgesic activity test: mouse writhing test by inducing with phenyl-p-quinone
# Format: in vivo
# Details: po, dose 3 mg/kg, p.o., read-out: Analgesic effect (% Inhibition)
# Protocol: 2. Analgesic Activity Test: Mouse Writhing Test by Inducing with Phenyl-p-quinone Male ICR mice (mean body weight 25 g) were maintained in a controlled lighting environment (12 h on/12 h off) for experiment. Animals received an intraperitoneal injection of 0.3 ml of the chemical irritant phenyl-p-quinone (dissolved in saline containing 5% ethanol to be a close of 4.5 mg/kg) and 6 mins later, the number of abdominal constrictions was counted in the subsequent 6 mins period. Animals (10 animals/group) received 0.2 ml of test compounds solution in vehicle of ethanol/Tween 80/saline (Oct. 10, 1980) intraperitoneally 30 min before the injection of phenyl-p-quinone. In the case of oral administration, 0.2 ml of test compounds solution in vehicle of ethanol/Tween 80/saline (5/5/90) were administered 54 min prior to the 0.2 ml of 0.02% phenyl-p-quinone injection. A reduction in the number of writhes responding to the test drug compound relative to the number responding in saline control group was considered to be indicative of an analgesic effect. Analgesic effect was calculated by % inhibition equation (% inhibition=(C-T)/C×100), wherein C and T represent the number of writhes in control and compound-treated group, respectively.
row,Compound,inhibition in vivo at 3 mg/kg [%]
1,"C[C@@H](NC(=O)c1coc(Oc2cccc(C(C)(C)C)c2)n1)c1cc(F)c(NS(C)(=O)=O)c(F)c1 [Example 1, 2-(3-tert-Butyl-phenoxy)-oxazole-4-carboxylic acid [1-(3,5-difluoro-4-methanesulfonylamino-phenyl)-ethyl]-amide]",21
2,"C[C@@H](NC(=O)c1coc(Oc2cccc(C(F)(F)F)c2)n1)c1cc(F)c(NS(C)(=O)=O)c(F)c1 [Example 2, 2-(3-Trifluoromethyl-phenoxy)-oxazole-4-carboxylic acid [1-(3,5-difluoro-4-methanesulfonylamino-phenyl)-ethyl]-amide]",32
3,"CC(C)c1cccc(Oc2nc(C(=O)N[C@H](C)c3cc(F)c(NS(C)(=O)=O)c(F)c3)co2)c1 [Example 4, 2-(3-Isopropyl-phenoxy)-oxazole-4-carboxylic acid [1-(3,5-difluoro-4-methanesulfonylamino-phenyl)-ethyl]-amide]",28
